Values quoted from earlier work as cited in patent US8163753B2, “2,3-dihydro-6-nitroimidazo (2,1-b) oxazole compounds for the treatment of tuberculosis” (priority 2003, dated 2012).

Tested on: multi-drug-resistant Mycobacterium tuberculosis
Conditions: literature report; cited from earlier work

## CCC1Cn2cc([N+](=O)[O-])nc2O1 (stereo not shown) [CGI-17341]
  bactericidal action to multi-drug-resistant Mycobacterium tuberculosis: has a bactericidal action
